Measurements: paper PMC11536652 (BMC Chemistry, 2024)
Where two headings read alike, the source gives them in different places.

Key:
[1] = Stability of tepotinib in QC plasma samples; format: in vitro ADME, rat
[2] = tepotinib 50 mg/kg oral, rat plasma, mean ± SD
[3] = previous study, humans; cited from earlier work

- stability maintained (long-term stability) ([1]; -80 ℃ refrigerator): 4 weeks
- stability maintained over freeze‒thaw cycles ([1]; -80 ℃ to ambient temperature): 3 freeze‒thaw cycles
- stability maintained (short-term stability) ([1]; ambient temperature): 3 h
- stability maintained in autosampler ([1]; autosampler (10 ℃)): 6 h
- CLz/F ([2]; Group A: control (0.5% CMC-Na)): 10.88 ± 1.04 L/h
- AUC(0-t) ([2]; male, Sprague-Dawley, rat, in vivo, po, 50 mg/kg, AUC0→t, Group A: control (0.5% CMC-Na)): 4600 ± 458 ng·h/mL
- AUC(0-inf) ([2]; male, Sprague-Dawley, rat, in vivo, po, 50 mg/kg, AUC0→∞, Group A: control (0.5% CMC-Na)): 4630 ± 454 ng·h/mL
- Cmax ([2]; male, Sprague-Dawley, rat, in vivo, po, 50 mg/kg, Cmax, Group A: control (0.5% CMC-Na)): 180 ± 38.2 ng/mL
- MRT last ([2]; male, Sprague-Dawley, rat, in vivo, po, 50 mg/kg, MRT0→t, Group A: control (0.5% CMC-Na)): 18.9 ± 1.21 h
- MRT inf ([2]; male, Sprague-Dawley, rat, in vivo, po, 50 mg/kg, MRT0→∞, Group A: control (0.5% CMC-Na)): 19.4 ± 1.36 h
- Tmax ([2]; male, Sprague-Dawley, rat, in vivo, po, 50 mg/kg, Tmax, Group A: control (0.5% CMC-Na)): 8.8 ± 3.03 h
- half-life ([2]; male, Sprague-Dawley, rat, in vivo, po, 50 mg/kg, t1/2, Group A: control (0.5% CMC-Na)): 9.4 ± 2.35 h
Structure (SMILES): CN1CCC(COc2cnc(-c3cccc(Cn4nc(-c5cccc(C#N)c5)ccc4=O)c3)nc2)CC1 [tepotinib, Tepotinib]
- Tmax [3]: 9 h
